Measurements: patent US9840488B2, “Carbon monoxide releasing molecules and associated methods” (Utah State University, priority 2015, dated 2017)
Converted amounts (≈) assume the structure as drawn. “Also recorded” adds a separate entry of the source. Like-named read-outs stand apart in the source and are kept apart here. Each block holds one compound with its values, some of them ahead of it.

Columns and labels:
[1] = tested on: A549 human adenocarcinoma cells; test: MTT cell viability assay, A549 cells; type: cell-based
Method: (§1) Jurkat (JM) cells were maintained as previously described by Shorey et al.^[39] A549 human adenocarcinoma cells (ATCC, Manassas, Va.) cells were grown in DMEM/Ham's F-12 1:1 mixture medium supplemented with 10% charcoal-stripped, heat-inactivated fetal bovine serum (FBS; Caisson Laboratories, Logan, Utah) in a humidified incubator at 37° C. with 5% CO2. Cytotoxicity was determined by the colorimetric MTT [3-(4,5-dimethyl-2-thiazolyl)-2,5-diphenyl-2H-tetrazoluim bromide] assay as previously describe.^[40] Briefly, 2.1×10^3 cells/ml for A549 cells or 1×10^5 cells/ml for Jurkat cells. Test compounds were prepared in DMSO, then added to culture media for a maximum final DMSO concentration not greater than 0.1% (v/v). After addition of test compounds at concentrations ranging from 80 nM to 100 μM, cells were incubated for 24 h in the dark, then treated with MTT to assess cell viability as outlined previously.^[40] All experiments were independently replicated three times, and each experimental treatment was performed in triplicate.

[2] = tested on: Jurkat (JM) cells; test: MTT cell viability assay, Jurkat cells; type: cell-based, human
Method: as §1

[3] = type: physicochemical; conditions: for quantum yield Φ of CO-release reaction / eq. CO released: aerobic CH3CN; for eq. CO released: average of three trials
Method: ^1H and ^13C{^1H} NMR spectra (in ppm) were collected using JEOL ECX-300 MHz spectrometer and are referenced to the residual solvent peak in CDCl3 (^1H: 7.26 (singlet) ppm; ^13C 77.16 (singlet) ppm) or DMSO-d6 (^1H: 2.50 ppm (quintet)). J values are given in Hz. IR spectra were collected using a Shimadzu FTIR-8400 as potassium bromide pellets. UV-vis spectra were recorded at ambient temperature using a Hewlett-Packard 8453A diode array spectrophotometer. Fluorescence emission spectra were collected using a Shimadzu RF-530XPC spectrometer in the range of 400-800 nm, with the excitation wavelength corresponding to the absorption maxima of the molecules. The excitation and emission slit widths were set at 1.5 nm for all molecules. Mass spectral data was collected at the Mass Spectrometry Facility, University of California, Riverside. ESI/APCI mass spectra were recorded on an Agilent LCTOF (2006) with a Windows XP based operating system. Elemental analyses were performed by Atlantic Microlab, Inc., Norcross, Ga., using a PE2400 automatic analyzer or at Robertson Microlit Laboratories, Ledgewood, N.J. using a Perkin Elmer CHN Analyzer Model 2400, Series II. […] Quantum yields were determined using potassium ferrioxalate or potassium reinekate as standards to measure photon flux.^[36] Carbon monoxide was quantified as previously described.^[37] […]
A solution of 5 in CD3CN (˜3 mM) was prepared in air under minimal red light and placed in an NMR tube. The NMR tube was then covered with foil, placed in a photo reactor, and irradiated using 419 nm lamps for 24 hours.
A solution of 5 in CD3CN (˜3 mM) was prepared under N2 in a glove box and placed in an NMR tube. The NMR tube was then placed in a photo reactor and irradiated using 419 nm lamps for 24 hours. […]

[4] = tested on: E. coli (ATCC 25922); test: Minimum inhibitory concentration, blue light vs dark; type: cell-based; set-up: key to Minimum inhibitory concentration (MIC): †: No inhibitory effect against bacterial strain
[5] = tested on: S. aureus (ATCC 25923); test: as above; type: cell-based; set-up: key to Minimum inhibitory concentration (MIC): †: No inhibitory effect against bacterial strain
[6] = tested on: S. aureus (ATCC 33591-MRSA); test: as above; type: cell-based; set-up: key to Minimum inhibitory concentration (MIC): †: No inhibitory effect against bacterial strain
[7] = molecular target: T1, bovine serum albumin (BSA) (Bos taurus, UniProt P02769); test: BSA binding by fluorescence quenching, competitive binding and docking
T1 sequence (P02769 25-607): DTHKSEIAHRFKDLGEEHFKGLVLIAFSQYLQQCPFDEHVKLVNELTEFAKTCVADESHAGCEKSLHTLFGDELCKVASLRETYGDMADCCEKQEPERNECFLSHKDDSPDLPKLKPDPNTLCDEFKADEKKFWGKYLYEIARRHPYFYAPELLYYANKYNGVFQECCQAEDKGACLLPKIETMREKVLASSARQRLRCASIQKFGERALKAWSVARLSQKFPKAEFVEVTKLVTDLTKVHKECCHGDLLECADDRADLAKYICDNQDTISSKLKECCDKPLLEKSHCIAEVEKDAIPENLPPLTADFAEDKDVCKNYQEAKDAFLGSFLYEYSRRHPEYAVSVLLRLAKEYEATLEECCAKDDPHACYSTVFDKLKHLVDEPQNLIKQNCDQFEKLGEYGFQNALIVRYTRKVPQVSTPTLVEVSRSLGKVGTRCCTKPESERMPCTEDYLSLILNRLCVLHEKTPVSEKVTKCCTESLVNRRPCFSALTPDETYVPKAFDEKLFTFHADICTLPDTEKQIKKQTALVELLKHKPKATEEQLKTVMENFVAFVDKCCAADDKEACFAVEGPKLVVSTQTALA

[8] = tested on: A549 cells; test: Cellular uptake by fluorescence microscopy; type: cell-based, human
Method: A549 cells were maintained in culture as described above, then seeded into seeded into Millicell E-Z-Slide culture chambers (EMD Millipore, Billerica, Mass.) at an initial density of 7.5×10^4 cells/cm^2 and allowed to adhere to the chamber slides for 24 hr. The cells were then treated for 1 hr with the nuclear dye Hoechst 33342 (0.5% v/v) for 10 min, followed by three washes with plain culture media to remove residual dye. All of incubation and wash steps described below were performed in the dark with minimal light exposure. A 100 mM stock solution of compound 5 was prepared in DMSO and then diluted to a working concentration of 2 mM in culture media (DMEM/Ham's F-12). The compound 5 working stock was diluted again to a final concentration of 50 μM in the culture chamber media, and the cells were incubated for 1 hr. The culture chamber was then gently washed thrice with plain culture media. Cells were fixed with a 1:10 (v/v) solution of formaldehyde fixative (Immunochemistry Technologies, Bloomington, Minn.) and culture media for 5 min, then washed twice with plain culture media. Finally, cells were imaged using a Zeiss Axio Observer inverted microscope (Carl Zeiss Microscopy, Thornwood, N.Y.) equipped with fluorescence detection. Images were acquired using a 10× objective with excitation λ of 450-490 nm (BP 470/40 filter) and emission λ of 500-550 nm (BP 525/50 filter) for detection of compound 5 in A549 cells following 30 sec, 3 min or 10 min exposure to visible light. Also, for localization of the Hoechst dye, a single fluorescence image was acquired at excitation λ at 365 nm; emission λ of 420-470 nm (BP 445/50 filter). Acquired images were universally adjusted to enhance contrast levels (same settings for all acquired images for each detection channel) using Adobe Photoshop CS6 (Adobe, San Jose, Calif.).

[9] = Solubility and solution stability
[10] = molecular target: T1, bovine serum albumin (BSA); conditions: literature value, cited from earlier work

Compound: O=C(Oc1cc2ccccc2cc1C(=O)O)c1ccccc1 [Compound 6, 3-(benzoyloxy)-2-naphthoic acid]
toxicity by MTT cell viability assay [1]: completely non-toxic
toxicity by MTT cell viability assay [2]: completely non-toxic

Compound: O=c1c(O)c(-c2ccccc2)oc2ccccc12 [3-hydroxyflavone, reference compound]
eq. CO generated ([3]; photoinduced reaction with O2, λirr=300 nm): 0.95 eq

Compound: 3-acetate-2-phenyl-benzo[g]chromen-4-one [Compound 12]
stability to visible light relative to 5 [3]: significantly more stable

IC50 ([1]; Homo sapiens, 24 h in the dark, MTT): 41.5 µM
Minimum inhibitory concentration (MIC) ([4]; Dark Conditions): †
MIC ([4]; Escherichia coli, ATCC25922, Light Conditions (blue light)): 27.8 µg/mL (≈ 96.4 µM)
Minimum inhibitory concentration (MIC) ([5]; Dark Conditions): †
MIC ([5]; Staphylococcus aureus, ATCC25923, Light Conditions (blue light)): 39.4 µg/mL (≈ 137 µM)
Minimum inhibitory concentration (MIC) ([6]; Dark Conditions): †
MIC ([6]; Staphylococcus aureus, Light Conditions (blue light)): 55.5 µg/mL (≈ 193 µM)
dark control reaction ([3]; CD3CN in air, tube covered with foil, 419 nm lamps, 24 hours, 1H NMR): no reaction had occurred
anaerobic control reaction ([3]; CD3CN under N2, 419 nm lamps, 24 hours, 1H NMR): no reaction had occurred
decrease in the rate of light induced CO-release on binding to BSA ([3]; compound bound to BSA): two-fold
binding site on BSA ([7]; competitive binding with warfarin and ibuprofen, AutoDock Vina docking): site 1 (subdomain II A)
binding affinity to BSA ([7]; fluorescence quenching, single binding site): 3200 M⁻¹
intracellular localization ([8]; 1 hr incubation): localized primarily to the cytoplasm
melting point: 208 to 210 °C
solubility in aqueous DMSO ([9]; 1:1 H2O:DMSO, 0.1% DMSO/RPMI cell culture media): soluble
solubility in organic solvents ([9]; CH3CN, CH2Cl2, CHCl3, DMSO): readily soluble
solution stability in the presence of ambient O2 ([9]; acetonitrile, 1:1 DMSO:H2O, or 0.1% DMSO:cell culture media (RPMI-1640; pH=7.4), protected from light): > 2 weeks
Compound: O=c1c(O)c(-c2ccccc2)oc2cc3ccccc3cc12 [Compound 5, 3-Hydroxy-2-phenyl-benzo[g]chromen-4-one]
toxicity by MTT cell viability assay [1]: minimal toxicity
toxicity by MTT cell viability assay [2]: minimal toxicity
quantum yield Φ of CO-release reaction ([3]; 419 nm irradiation): 0.007(3)
eq. CO released ([3]; 419 nm irradiation): 0.96(2) eq
photoinduced CO-release reaction in other solvents ([3]; methanol and 1:1 H2O:DMSO, 1H NMR and GC head space gas analysis): same reaction occurs
cellular uptake / cell permeability ([8]; 50 μM, 1 hr incubation): cell permeable; also recorded: taken up by almost all cells
loss of green fluorescence in cells on exposure to visible light ([8]; ten minutes visible light): complete loss

Compound: COc1cccc2c1C(=O)c1c(O)c3c(c(O)c1C2=O)C[C@@](O)(C(=O)CO)C[C@@H]3O[C@H]1C[C@H](N)[C@H](O)[C@H](C)O1 [doxorubicin]
binding affinity to BSA [10]: 7300 M⁻¹

Compound: Oc1c(-c2ccccc2)oc2cc3ccccc3cc2c1=S [Compound 8, 3-Hydroxy-2-phenyl-4H-benzo[g]chromene-4-thione]
quantum yield Φ of CO-release reaction ([3]; 419 nm irradiation): 0.426(3)
eq. CO released ([3]; 419 nm irradiation): 1.01(1) eq

melting point: 191 to 192 °C
Compound: CCN(CC)c1ccc(-c2oc3cc4ccccc4cc3c(=O)c2O)cc1 [Compound 7, 2-(4-(diethylamino)phenyl)-3-hydroxy-4H-benzo[g]chromen-4-one]
quantum yield Φ of CO-release reaction ([3]; 419 nm irradiation): 0.006(1)
eq. CO released ([3]; 419 nm irradiation): 0.99(1) eq

Compound: O=c1c(O)c(-c2ccc(O)c(O)c2)oc2cc(O)cc(O)c12 [quercetin]
binding affinity to BSA ([10]; unit not given): 3.65×10^7

Compound: CCN(CC)c1ccc(-c2oc3cc4ccccc4cc3c(=S)c2O)cc1 [Compound 9, 2-(4-(diethylamino)phenyl)-3-hydroxy-4H-benzo[g]chromene-4-thione]
quantum yield Φ of CO-release reaction ([3]; >546 nm irradiation): 0.20(1)
eq. CO released ([3]; >546 nm irradiation): 1.01(1) eq
